# Assay results: patent publication US5807875A, “Amino acid derivatives, pharmaceutical compositions containing these compounds and processes for preparing them” (Dr. Karl Thomae GmbH, priority 1993, dated 1998)
# Tests used:
# NPY-Y1 receptor = target: T1, NPY-Y1 receptor (Homo sapiens, UniProt P25929); assay: Studies of binding with SK-N-MC cells (displacement of [^125 I]-Bolton-Hunter-NPY); details: SK-N-MC cells expressing the human Y1-receptor, 3 hours at ambient temperature
# T1 construct: SK-N-MC cells (expressing the human Y1 -receptor); endogenous in cells; host or cells: SK-N-MC (human cell line), whole cells in suspension
# T1 sequence (P25929 1-384): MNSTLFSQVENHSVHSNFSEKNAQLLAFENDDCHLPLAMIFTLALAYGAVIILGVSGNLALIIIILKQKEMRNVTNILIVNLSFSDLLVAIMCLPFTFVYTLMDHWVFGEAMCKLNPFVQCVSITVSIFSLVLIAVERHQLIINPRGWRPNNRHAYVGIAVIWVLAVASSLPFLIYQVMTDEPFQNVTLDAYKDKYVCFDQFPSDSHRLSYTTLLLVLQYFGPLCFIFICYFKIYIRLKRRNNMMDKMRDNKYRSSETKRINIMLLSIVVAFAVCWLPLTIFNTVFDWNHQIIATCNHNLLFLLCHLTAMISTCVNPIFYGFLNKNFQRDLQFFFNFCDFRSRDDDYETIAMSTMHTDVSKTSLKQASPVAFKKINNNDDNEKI
# Method: A. Studies of binding with SK-N-MC cells (expressing the human Y1 -receptor)
# Incubation is ended by centrifuging (10 minutes at 3000×gand 4° C.). After washing once with PBS, the radioactivity of the pellet is measured in a gamma counter. […] The proportion of non-specific binding is defined as that radioactivity which is bound in the presence of 1 μM NPY. The IC50 values of the unlabelled test substances are determined graphically.
# NPY activity = assay: NPY-antagonism in vitro (isolated perfused rat kidney); details: inhibition of NPY (1 μM bolus) induced pressure increase, 5 minute infusion of compound
# Method: B. NPY-antagonism in vitro
# Male rats (CHbb: THOM, 300 to 350 g) are given heparin (100 IU, i.v.) and the animals are then killed by a blow to the back of the neck. The abdomen is opened along the centre of the body and the left kidney is removed after the insertion of catheters in the renal artery, renal vein and ureter. The isolated kidney is immediately perfused with a modified Krebs-Ringer solution having the following composition (4 ml/minute):
# A mixture of 95% O2 /5% CO2 is passed through the solution which is kept at a temperature of 37° C. The perfusion pressure is measured continuously using a pressure gauge. After a 60 minute stabilisation period the perfusion rate is adjusted so as to obtain a perfusion pressure of approximately 100 mm Hg. After a further 30 minutes the experiment is started and NPY (1 μM) is administered as a bolus (0.1 ml) at 15 minute intervals until the pressure increase observed reaches a constant value. The compounds to be tested are given in the form of a continuous infusion over a period of 5 minutes and then NPY is injected. After a 30 minute wash-out period the next highest concentration of test substance is investigated. 3 to 5 different concentrations of the particular compound are tested on each occasion. Concentration/activity curves can be obtained by plotting the percentage inhibition of the NPY activity against the logarithm of the concentration (mol/l) of the compound.
# [1] = test system: NPY-induced blood pressure effects; assay: In vivo NPY-antagonism (pithed rats); details: Rattus norvegicus, iv, 1 min, inhibition of increase in diastolic blood pressure by NPY (10 μg/kg, i.v.), NPY given one minute after test substance, read-out: pID50 (the source's name) (converted)
# Method: C. In vivo NPY-antagonism
# Male rats of normal blood pressure (Chbb:THOM, 300 to 350 g) are anaesthetised with sodium hexobarbital (150 mg/kg, i.p.). After intubation of the trachea the animals are pithed by introducing a blunt needle through the eye into the spinal bone marrow channel. The animals are ventilated with oxygen-rich ambient air using a respiratory pump (20 strokes/minute). A cannula is inserted in the left carotid artery and the arterial blood pressure is measured using a pressure gauge (Braun Melsungen Combitrans) connected to a recording device. For injection purposes a catheter is placed in the left jugular vein through which heparin is administered (200 IU/kg, i.v.). After the blood pressure has been stabilised, the animals are given 2 bolus injections of NPY (10 μg/kg, i.v.) at intervals of 15 minutes. The average increase in diastolic blood pressure is taken as the reference value (=100%). The test substances are injected in increasing doses (4 to 6 doses) at intervals of 15 minutes. One minute after administration of the test substance, NPY is administered.
# The antagonistic effect of the test substances is determined by plotting the percentage inhibition of the NPY-induced blood pressure effects against the logarithm of the concentration of active substance.
SMILES,IC50 (NPY-Y1 receptor),also measured
N=C(N)NCCC[C@@H](NC(=O)C(c1ccccc1)c1ccccc1)C(=O)NCc1ccc(O)cc1 [C],–,pIC50 (NPY activity): 7.15 mol/l; ED50 [1]: 0.186 µmol/kg
O=C(NCc1ccc(O)cc1)C(Cc1ccc(C2=NCCN2)cc1)NC(=O)C(c1ccccc1)c1ccccc1 (stereo not drawn) [O],207 nM,–
N=C(N)NCCC[C@@H](NC(=O)C(c1ccccc1)c1ccccc1)C(=O)NCc1ccc(CO)cc1 [D],13.5 nM,–
CC1(C)NC(=O)N(Cc2ccc(CNC(=O)[C@@H](CCCNC(=N)N)NC(=O)C(c3ccccc3)c3ccccc3)cc2)C1=O [L],26.8 nM,–
O=C(Nc1ccc2ccccc2c1)NC(CCCNc1ncc[nH]1)C(=O)NCc1ccc(O)cc1 (stereo not drawn) [N],85.5 nM,–
Cc1cc(CNC(=O)C(CCCNC(=N)N)NC(=O)C(c2ccccc2)c2ccccc2)ccc1O (stereo not drawn) [E],10 nM,–
N=C(N)NCCC[C@@H](NC(=O)C(c1ccc(Br)cc1)c1ccc(Br)cc1)C(=O)NCc1ccc(O)cc1 [A],1.8 nM,–
"N=C(N)NCCC[C@@H](NC(=O)C(c1ccccc1)c1ccccc1)C(=O)NCc1ccc(CN)cc1.O=C(O)C(F)(F)F.O=C(O)C(F)(F)F [Example 128, (R)-N-[[4-(Aminomethyl)phenyl]methyl]-N^2-(diphenylacetyl)-argininamide-bis-(trifluoroacetate)]",–,solubility in dichloromethane (Solubility; dichloromethane): readily soluble; solubility in dimethylsulphoxide (Solubility; dimethylsulphoxide): readily soluble; solubility in methanol (Solubility; methanol): readily soluble; solubility in water (Solubility; water): readily soluble

# Continued, in another order:
IC50 (NPY-Y1 receptor),SMILES,also measured
39 nM,N=C(N)CCCCC(NC(=O)C(c1ccccc1)c1ccccc1)C(=O)NCc1ccc(O)cc1 (stereo not drawn) [P],–
32 nM,COc1ccc(CNC(=O)C(CCCNC(=N)N)NC(=O)C(c2ccccc2)c2ccccc2)cc1 (stereo not drawn) [K],pIC50 (NPY activity): 6.70 mol/l; ED50 [1]: 0.331 µmol/kg
11.3 nM,N=C(N)c1cccc(CC(NC(=O)C(c2ccccc2)c2ccccc2)C(=O)NCc2ccc(O)cc2)c1 (stereo not drawn) [F],pIC50 (NPY activity): 7.70 mol/l; ED50 [1]: 0.151 µmol/kg
80.5 nM,O=C(NC(CCCNc1ncc[nH]1)C(=O)NCc1ccc(O)cc1)c1ccc2ccccc2c1 (stereo not drawn) [M],–
25.3 nM,CN(Cc1ccc(O)cc1)C(=O)[C@@H](CCCNC(=N)N)NC(=O)C(c1ccccc1)c1ccccc1 [G],–
26 nM,Cc1cc(CNC(=O)C(CCCNC(=N)N)NC(=O)C(c2ccccc2)c2ccccc2)cc(C)c1O (stereo not drawn) [I],–
18 nM,O=C(NCc1ccc(O)cc1)C(CCCNc1ncc[nH]1)NC(=O)C(c1ccccc1)c1ccccc1 (stereo not drawn) [H],–
7.7 nM,N=C(N)NCCC[C@@H](NC(=O)C(c1ccccc1)c1ccccc1)C(=O)NCc1ccc(CCO)cc1 [B],–
